Patent publication US8834549B2, “One-step phosphorylcholine-linked polymer coating and drug loading of stent” (Abbott Laboratories, priority 2007, dated 2014)

Assay: Total drug level on stents after ETO cycles by extraction and HPLC
Type: physicochemical
Conditions: 5 stents with 1 ETO cycle, 5 stents with 3 ETO cycles
Experimental: Weighed 129 mg of ABT-578, a rapamycin derivative and 280 mg of phosphorylcholine-linked methacrylate terpolymer PC1036 and dissolved them in 10 ml of […] by shaking overnight protected from light. The solution was filtered through a 0.45 micron Teflon filter and the solution was added to the syringe reservoir of a semi-automated spray atomization gun coupled to a lathe-like device designed to hold stents, rotate them and translate them linearly in front of the spray gun. The equipment was programmed to spray enough solution in order to obtain about 10 micrograms of drug per linear mm of stent length, taking into account the losses of solution due to lack of contact with the stent as it is sprayed. After spraying, the stents were allowed to dry in air, followed by packaging them individually in glass vials sealed with an ETO permeable Tyvec membrane. The samples were sent out for ETO sterilization by one or three complete cycles.
Analysis was done of the total drug level from 5 stents that underwent 1 ETO cycle and 5 stents that underwent 3 ETO cycles using standard extraction and HPLC analysis.

Structure (SMILES): CO[C@H]1C[C@@H]2CC[C@@H](C)[C@@](O)(O2)C(=O)C(=O)N2CCCC[C@H]2C(=O)O[C@H]([C@H](C)C[C@@H]2CC[C@H](n3cnnn3)[C@H](OC)C2)CC(=O)[C@H](C)/C=C(\C)[C@@H](O)[C@@H](OC)C(=O)[C@H](C)C[C@H](C)/C=C/C=C/C=C/1C [ABT-578]
- stability of drug on stent to ETO cycles (total drug level, 3 cycles vs 1 cycle): stable to 3 ETO cycles
